In brackets after ≈: the same amount, converted by molar mass.
species: Bos taurus; experiment: Inhibition of bovine brain tubulin assembly assessed as drug level causing decrease in tubulin depolymerization rate; conditions: not given

Row | SMILES | ID50
1 | CC(=O)O[C@H]1C(=O)[C@]2(C)[C@@H](OC(=O)c3ccc(C4(C(F)(F)F)N=N4)cc3)C[C@H]3OC[C@@]3(OC(C)=O)[C@H]2[C@H](OC(=O)c2ccccc2)[C@]2(O)C[C@H](OC(=O)[C@H](O)[C@@H](NC(=O)c3ccccc3)c3ccccc3)C(C)=C1C2(C)C | 0.34 µM
2 | CC(=O)O[C@H]1C(=O)[C@]2(C)[C@@H](OC(=O)c3ccccc3)C[C@H]3OC[C@@]3(OC(C)=O)[C@H]2[C@H](OC(=O)c2ccccc2)[C@]2(O)C[C@H](OC(=O)[C@H](O)[C@@H](NC(=O)c3ccccc3)c3ccccc3)C(C)=C1C2(C)C | 0.17 µM
3 | CC(=O)O[C@H]1C(=O)[C@@]2(C)[C@H]([C@H](OC(=O)c3ccccc3)[C@]3(O)C[C@H](OC(=O)[C@H](O)[C@@H](NC(=O)c4ccccc4)c4ccccc4)C(C)=C1C3(C)C)[C@]1(OC(C)=O)CO[C@@H]1C[C@@H]2O | 0.1 µM

tested on: J774.2; experiment: Cytotoxicity against mouse J774.2 cells; type: functional; conditions: not given

Row | SMILES | ED50
4 | CC(=O)O[C@H]1C(=O)[C@@]2(C)[C@H]([C@H](OC(=O)c3ccccc3)[C@]3(O)C[C@H](OC(=O)[C@H](OC(C)=O)[C@@H](NC(=O)c4ccccc4)c4ccccc4)C(C)=C1C3(C)C)[C@]1(OC(C)=O)CO[C@@H]1C[C@@H]2O | 3 ×10⁻⁷ M
5 | CC(=O)O[C@H]1C(=O)[C@]2(C)[C@@H](OC(C)=O)C[C@H]3OC[C@@]3(OC(C)=O)[C@H]2[C@H](OC(=O)c2ccccc2)[C@]2(O)C[C@H](OC(=O)[C@H](O)[C@@H](NC(=O)c3ccccc3)c3ccccc3)C(C)=C1C2(C)C [PACLITAXEL C7 ACETYLCARBOXYLIC ACID ESTER] | 9 ×10⁻⁸ M

tested on: KB; experiment: Cytotoxicity against human KB cells; type: functional; conditions: not given

Row | SMILES | ED50
6 | CC(=O)O[C@H]1C(=O)[C@]2(C)[C@H](O)C[C@H]3OC[C@@]3(OC(C)=O)[C@H]2[C@H](OC(=O)c2ccccc2)[C@]2(O)C[C@H](OC(=O)[C@H](O)[C@@H](NC(=O)c3ccccc3)c3ccccc3)C(C)=C1C2(C)C | 3 ×10⁻⁵ ug/ml

same assay, conditions: Homo sapiens, KB; read-out: ED50 (the source's name)

Row | SMILES | EC50
7 | C=C(C)[C@@]12C[C@H](OC(=O)[C@H](OC(C)=O)[C@@H](NC(=O)c3ccccc3)c3ccccc3)C(C)=C1[C@@H](OC(C)=O)C(=O)[C@]1(C)[C@@H](OC(C)=O)C[C@H](OC(C)=O)[C@@](O)(COC(C)=O)[C@H]1[C@@H]2OC(=O)c1ccccc1 | 2.5 µg/mL (≈ 2.55 µM)
8 | CC(=O)O[C@H]1C(=O)[C@]2(C)[C@@H](OC(C)=O)C[C@H]3OC[C@@]3(OC(C)=O)[C@H]2[C@H](OC(=O)c2ccccc2)[C@]2(O)C[C@H](OC(=O)[C@H](OC(C)=O)[C@@H](NC(=O)c3ccccc3)c3ccccc3)C(C)=C1C2(C)C | 0.03 µg/mL (≈ 0.032 µM)
9 | CC(=O)O[C@H]1C[C@H]2OC[C@@]2(OC(C)=O)[C@H]2[C@H](OC(=O)c3ccccc3)[C@]3(O)C[C@H](OC(=O)[C@H](OC(C)=O)[C@@H](NC(=O)c4ccccc4)c4ccccc4)C(C)=C([C@@H](O)C(=O)[C@]12C)C3(C)C | < 0.01 µg/mL
10 | CC(=O)OC[C@@]1(O)[C@H]2[C@H](OC(=O)c3ccccc3)[C@]3(O)C[C@H](OC(=O)[C@H](O)[C@@H](NC(=O)c4ccccc4)c4ccccc4)C(C)=C([C@@H](OC(C)=O)C(=O)[C@]2(C)[C@@H](O)C[C@@H]1O)C3(C)C | 0.2 µg/mL (≈ 0.229 µM)
11 | CC(=O)O[C@H]1C(=O)[C@@H](C)C([C@@]2(OC(C)=O)CCC(=O)OC2)[C@H](OC(=O)c2ccccc2)[C@]2(O)C[C@H](OC(=O)[C@H](O)[C@@H](NC(=O)c3ccccc3)c3ccccc3)C(C)=C1C2(C)C (stereo partly specified) | 2 µg/mL (≈ 2.34 µM)
12 | CC(=O)O[C@H]1C(=O)[C@]2(C)C(=O)C[C@H]3OC[C@@]3(OC(C)=O)[C@H]2[C@H](OC(=O)c2ccccc2)[C@]2(O)C[C@H](OC(=O)[C@H](O)[C@@H](NC(=O)c3ccccc3)c3ccccc3)C(C)=C1C2(C)C | 0.5 µg/mL (≈ 0.587 µM)
13 | CC(=O)O[C@H]1C(=O)[C@]2(C)C(=O)C[C@H]3OC[C@@]3(OC(C)=O)[C@H]2[C@H](OC(=O)c2ccccc2)[C@]2(O)C[C@H](OC(=O)C(=O)[C@@H](NC(=O)c3ccccc3)c3ccccc3)C(C)=C1C2(C)C | 12 µg/mL (≈ 14.1 µM)
14 | CC(=O)O[C@@]12CO[C@@H]1C[C@H](O)[C@@]1(C)C(=O)C(=O)C3=C(C)[C@@H](OC(=O)[C@H](O)[C@@H](NC(=O)c4ccccc4)c4ccccc4)C[C@@](O)([C@@H](OC(=O)c4ccccc4)[C@H]21)C3(C)C | 0.02 µg/mL (≈ 0.0247 µM)
15 | C=C1[C@@H](O)C[C@@H](OC(C)=O)[C@@]2(C)[C@@H](OC(C)=O)[C@H](OC(C)=O)C3=C(C)[C@@H](OC(C)=O)C[C@@](O)([C@@H](OC(C)=O)[C@H]12)C3(C)C [DECINNAMOYLTAXININE] | 28 µg/mL (≈ 47.1 µM)
16 | CC(=O)O[C@@]12CO[C@@H]1C[C@H](O)[C@@]1(C)C(=O)[C@H](O)C3=C(C)[C@@H](O)C[C@@](O)([C@@H](OC(=O)c4ccccc4)[C@H]21)C3(C)C | 1 µg/mL (≈ 1.84 µM)

Source: ChEMBL document CHEMBL1151135, “The Chemistry of Taxol, a Clinically Useful Anticancer Agent” (1990)
